Assay: Oral bioavailability in C57BL/6J mouse
Format: ADME, organism-based
Conditions: in vivo

bioavailability	Compound
93%	Cc1cc(F)c(Br)cc1NS(=O)(=O)c1ccc(NS(=O)(=O)c2cc(Cl)cc(Cl)c2)cc1CN1CCOC[C@H]1C
71.3%	COC(=O)c1cc(NS(=O)(=O)c2cc(Cl)cc(Cl)c2)ccc1S(=O)(=O)Nc1cc(Br)c(F)cc1C

Source: ChEMBL document CHEMBL5226318, “Emerging Therapeutic Potential of SIRT6 Modulators” (J Med Chem, 2021)
